In US20240116892A1, “HETEROCYCLIC AMIDE AND UREA COMPOUNDS AS JAK2 INHIBITORS” (Ajax Therapeutics, Inc., priority 2022, published 2024):

Target: JAK2 (JH1 domain-catalytic, Y1007F, Y1008F) kinase (Homo sapiens (Human), UniProt O60674, Y1007F/Y1008F)
Experiment: JAK2 JH1 Domain Binding Assay
Details: qPCR readout
Outline: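 JH1 catalytic domain (Y1007F/Y1008F) expressed as NFkB DNA-binding-domain fusion in HEK293 cells, DNA-tagged. Competition with immobilized biotinylated ligand on streptavidin beads, 1 h at RT in PBS/Tween/BSA/DTT; bound kinase eluted with free ligand and quantified by qPCR.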

Chain of JAK2 (JH1 domain-catalytic, Y1007F, Y1008F) kinase (O60674 849-1124 Y1007F/Y1008F): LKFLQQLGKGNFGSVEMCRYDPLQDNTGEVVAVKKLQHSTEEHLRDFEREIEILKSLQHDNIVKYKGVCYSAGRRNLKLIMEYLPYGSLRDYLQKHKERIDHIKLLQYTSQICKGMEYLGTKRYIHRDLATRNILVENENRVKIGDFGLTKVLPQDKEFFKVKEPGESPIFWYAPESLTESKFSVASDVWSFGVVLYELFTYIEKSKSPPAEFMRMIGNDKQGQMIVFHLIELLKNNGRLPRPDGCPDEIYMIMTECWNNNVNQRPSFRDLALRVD

Row | Kd [nM] | Compound
1 | < 10 | CN(C(=O)Nc1cc(C(F)(F)F)cn(C)c1=O)C12CCC(c3cnc4[nH]ncc4c3)(CC1)OC2 [Example I-168, 1-(1-(1H-pyrazolo[3,4-b]pyridin-5-yl)-2-oxabicyclo[2.2.2]octan-4-yl)-1-methyl-3-(1-methyl-2-oxo-5-(trifluoromethyl)-1,2-dihydropyridin-3-yl)urea]
2 | < 10 | COc1c[nH]c2ncc([C@H]3CC[C@H](N(C)C(=O)Nc4cc(C(F)(F)F)cn(C)c4=O)CC3)nc12 [Example I-170, trans-1-(4-(7-methoxy-5H-pyrrolo[2,3-b]pyrazin-2-yl)cyclohexyl)-1-methyl-3-(1-methyl-2-oxo-5-(trifluoromethyl)-1,2-dihydropyridin-3-yl)urea]
3 | 50 to 1000 | COc1c[nH]c2ncc([C@H]3CC[C@@H](N(C)C(=O)Nc4cc(C(F)(F)F)cn(C)c4=O)CC3)nc12 [Example I-171, cis-1-(4-(7-methoxy-5H-pyrrolo[2,3-b]pyrazin-2-yl)cyclohexyl)-1-methyl-3-(1-methyl-2-oxo-5-(trifluoromethyl)-1,2-dihydropyridin-3-yl)urea]
4 | < 10 | Cc1cc(C(F)(F)F)cc(NC(=O)N(C)[C@@H]2CCN(c3cnc4[nH]ncc4c3)C[C@H]2F)n1 [Example I-177, 1-((3R,4R)-3-fluoro-1-(1H-pyrazolo[3,4-b]pyridin-5-yl)piperidin-4-yl)-1-methyl-3-(6-methyl-4-(trifluoromethyl)pyridin-2-yl)urea]
5 | < 10 | Cc1cc(C(F)(F)F)cc(NC(=O)N(C)[C@H]2CCN(c3cnc4[nH]ncc4c3)C[C@@H]2F)n1 [Example I-178, 1-((35,4S)-3-fluoro-1-(1H-pyrazolo[3,4-b]pyridin-5-yl)piperidin-4-yl)-1-methyl-3-(6-methyl-4-(trifluoromethyl)pyridin-2-yl)urea]
6 | 10 to 50 | CN(C(=O)Nc1cc(C(F)(F)F)cn(C)c1=O)C12CC(c3ccc(NC(=O)C4CC4)nc3)(C1)C2 [Example I-179, N-(5-(3-(1-methyl-3-(1-methyl-2-oxo-5-(trifluoromethyl)-1,2-dihydropyridin-3-yl)ureido)bicyclo[1.1.1]pentan-1-yl)pyridin-2-yl)cyclopropanecarboxamnide]

Further lines, the compound ahead of its results:

Row | Compound | Kd [nM]
7 | CN(C(=O)Nc1cc(C(C)(C)C)n([C@@H]2CCOC2)n1)C1CCN(c2cnc3[nH]ncc3c2)CC1 [Example I-173, (R)-1-(1-(1H-pyrazolo[3,4-b]pyridin-5-yl)piperidin-4-yl)-3-(5-(tert-butyl)-1-(tetrahydrofuran-3-yl)-1H-pyrazol-3-yl)-1-methylurea] | < 10
8 | CN(C(=O)Nc1cc(C(C)(C)C)n([C@H]2CCOC2)n1)C1CCN(c2cnc3[nH]ncc3c2)CC1 [Example I-174, (S)-1-(1-(1H-pyrazolo[3,4-b]pyridin-5-yl)piperidin-4-yl)-3-(5-(tert-butyl)-1-(tetrahydrofuran-3-yl)-1H-pyrazol-3-yl)-1-methylurea] | < 10
9 | CN(C(=O)Nc1cc(C(F)(F)F)ccn1)[C@@H]1CCN(c2cnc3[nH]ncc3c2)C[C@H]1F [Example I-175, 1-((3R,4R)-3-fluoro-1-(1H-pyrazolo[3,4-b]pyridin-5-yl)piperidin-4-yl)-1-methyl-3-(4-(trifluoromethyl)pyridin-2-yl)urea] | < 10
10 | CN(C(=O)Nc1cc(C(F)(F)F)ccn1)[C@H]1CCN(c2cnc3[nH]ncc3c2)C[C@@H]1F [Example I-176, 1-((3S,4S)-3-fluoro-1-(1H-pyrazolo[3,4-b]pyridin-5-yl)piperidin-4-yl)-1-methyl-3-(4-(trifluoromethyl)pyridin-2-yl)urea] | < 10
11 | CN(C(=O)Nc1cc(C(F)(F)F)n([C@@H]2CCOC2)n1)C1CCN(c2cnc3[nH]ncc3c2)CC1 [Example I-180, (R)-1-(1-(1H-pyrazolo[3,4-b]pyridin-5-yl)piperidin-4-yl)-1-methyl-3-(1-(tetrahydrofuran-3-yl)-5-(trifluoromethyl)-1H-pyrazol-3-yl)urea] | < 10
12 | CN(C(=O)Nc1cc(C(F)(F)F)n([C@H]2CCOC2)n1)C1CCN(c2cnc3[nH]ncc3c2)CC1 [Example I-181, (S)-1-(1-(1H-pyrazolo[3,4-b]pyridin-5-yl)piperidin-4-yl)-1-methyl-3-(1-(tetrahydrofuran-3-yl)-5-(trifluoromethyl)-1H-pyrazol-3-yl)urea] | < 10
13 | CCN1CCN(Cc2ccc(NC(=O)N(C)C3CCN(c4cnc5[nH]nc(OC)c5c4)CC3)cc2C(F)(F)F)CC1 [Example I-182, 3-(4-((4-ethylpiperazin-1-yl)methyl)-3-(trifluoromethyl)phenyl)-1-(1-(3-methoxy-1H-pyrazolo[3,4-b]pyridin-5-yl)piperidin-4-yl)-1-methylurea] | < 10
14 | (S)-1-methyl-3-(1-methyl-2-oxo-5-(trifluoromethyl)-1,2-dihydropyridin-3-yl)-1-(3-(3-((tetrahydrofuran-3-yl)oxy)-1H-pyrazolo[3,4-b]pyridin-5-yl)bicyclo[1.1.1]pentan-1-yl)urea and (R)-1-methyl-3-(1-methyl-2-oxo-5-(trifluoromethyl)-1,2-dihydropyridin-3-yl)-1-(3-(3-((tetrahydrofuran-3-yl)oxy)-1H-pyrazolo[3,4-b]pyridin-5-yl)bicyclo[1.1.1]pentan-1-yl)urea [Example I-166-a] | 50 to 1000
15 | (S)-1-methyl-3-(1-methyl-2-oxo-5-(trifluoromethyl)-1,2-dihydropyridin-3-yl)-1-(3-(3-((tetrahydrofuran-3-yl)oxy)-1H-pyrazolo[3,4-b]pyridin-5-yl)bicyclo[1.1.1]pentan-1-yl)urea and (R)-1-methyl-3-(1-methyl-2-oxo-5-(trifluoromethyl)-1,2-dihydropyridin-3-yl)-1-(3-(3-((tetrahydrofuran-3-yl)oxy)-1H-pyrazolo[3,4-b]pyridin-5-yl)bicyclo[1.1.1]pentan-1-yl)urea [Example I-166-b] | ≥ 5000
